Assay results published in US6287794A, “Factor Vlla inhibitors” (Aventis Pharma Deutschland GmbH, priority 1998, dated 2001).
pKi: −log10 of the molar value. Starred links: 1 amine or outer side, 2 acyl side, 3 side chain; linkers in the order of their positions; H or OH if unused. Non-standard residues stand in square brackets, D forms with d. Residues, ends and D or L forms follow the SMILES beside them. *: point of attachment. dPhe(4-guanidino) = N=C(N)Nc1ccc(C[C@@H](N)C(=O)O)cc1; Phe(4-NO2) = N[C@@H](Cc1ccc([N+](=O)[O-])cc1)C(=O)O; Phe(4-guanidino) = N=C(N)Nc1ccc(C[C@H](N)C(=O)O)cc1; Phe(4-amidino) = N=C(N)c1ccc(C[C@H](N)C(=O)O)cc1; Orn(acetimidoyl) = CC(=N)NCCC[C@H](N)C(=O)O; d(hArg) = N=C(N)NCCCC[C@@H](N)C(=O)O; Cha = N[C@@H](CC1CCCCC1)C(=O)O; Agb = N=C(N)NCC[C@H](N)C(=O)O; Phg = N[C@H](C(=O)O)c1ccccc1; Dab = NCC[C@H](N)C(=O)O; CO = O=C([*:1])[*:2]; Alloc = C=CCOC(=O)*; Bn = c1ccc(C*)cc1; NHAllyl = C=CCN*

Molecular target: T1, human factor VIIa and TF (Homo sapiens, UniProt P08709)
T1 construct: human factor VIIa and TF
Test: Determination of Ki for FVIIa inhibition (chromogenic assay, substrate S-2288)
Assay type: biochemical
Details: human factor VIIa 5 nM and TF 10 nM, S-2288 500 μM, 25° C., 15 minute preincubation, pH 8.15; read-out: Factor VIIa inhibitory activities Ki
Procedure: The inhibitory activity (Ki) of each compound towards […] activity was determined using a chromogenic assay essentially as described previously. J. A. Ostrem, F. Al-Obeidi, P. Safar, A. Safarova, S. K. Stringer, M. Patek, M. T. Cross, J. Spoonamore, J. C. LoCascio, P. Kasireddy, D. S. Thorpe, N. Sepetov, M. Lebi, P. Wildgoose, P. Strop, "Discovery of a novel, potent, and specific family of factor Xa inhibitors via combinatorial chemistry". Biochemistry 37 (1998) 1053-1059. Kinetic assays were conducted at 25° C. in half-area microtiter plates (Costar Corp., Cambridge, Mass.) using a kinetic plate reader (Molecular Devices Spectramax 250). A typical assay consisted of 25 μl of human factor VIIa and TF (5 nM and 10 nM, respective final concentration) combined with 40 μl of inhibitor dilutions in 10% DMSO/TBS-PEG buffer (50 mM Tris, 15 mM NaCl, 5 mM CaCl2; 0.05% PEG 8k, pH 8.15). Following a 15 minute preincubation period, the assay was initiated by the addition of 35 μl of the chromogenic substrate S-2288 (D-Ile-Pro-Arg-pNA, Pharmacia Hepar Inc, 500 μM final concentration.). The apparent inhibition constants were calculated from the slope of the progress curves during the linear part of the time course, typically between 1 and 5 min following addition of substrate to the assay. The true Ki was subsequently determined for each compound by correcting for substrate concentration (S) and the Km using the formula Ki=Ki app/(1+(S)/Km). I. H. Segal, Enzyme Kinetics, pp 100-125 (John Wiley & Sons, N.Y., 1975).

T1 sequence (P08709 213-466 limits assumed): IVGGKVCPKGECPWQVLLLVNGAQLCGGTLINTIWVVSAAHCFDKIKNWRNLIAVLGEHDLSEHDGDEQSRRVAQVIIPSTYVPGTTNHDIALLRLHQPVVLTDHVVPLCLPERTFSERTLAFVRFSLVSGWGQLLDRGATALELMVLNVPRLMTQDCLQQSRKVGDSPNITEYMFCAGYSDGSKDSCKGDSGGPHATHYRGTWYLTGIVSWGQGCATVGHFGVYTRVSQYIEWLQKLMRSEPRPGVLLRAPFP
T1 sequence (P08709 61-212 limits assumed): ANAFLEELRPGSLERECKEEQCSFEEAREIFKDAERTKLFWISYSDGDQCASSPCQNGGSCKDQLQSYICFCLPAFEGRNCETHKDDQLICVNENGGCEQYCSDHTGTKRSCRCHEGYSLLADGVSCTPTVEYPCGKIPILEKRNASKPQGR
T1 sequence (P13726 33-295 partner): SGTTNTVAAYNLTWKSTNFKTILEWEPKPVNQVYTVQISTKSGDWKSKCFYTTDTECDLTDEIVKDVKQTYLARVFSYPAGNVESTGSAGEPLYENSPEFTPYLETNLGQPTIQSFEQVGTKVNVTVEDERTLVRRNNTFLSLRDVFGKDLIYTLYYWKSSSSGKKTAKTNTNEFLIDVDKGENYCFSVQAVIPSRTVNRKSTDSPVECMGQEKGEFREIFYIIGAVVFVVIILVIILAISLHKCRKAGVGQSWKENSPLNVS

SMILES	pKi
C=CCOC(=O)N[C@@H](Cc1ccc(C(=N)N)cc1)C(=O)N[C@@H](CCC(=O)O)C(=O)N[C@@H](CSC)C(=O)N[C@@H](CC1CCCCC1)C(N)=O [Alloc--pAph--Glu--Cys(Me)--Cha--NH2] (Alloc-[Phe(4-amidino)]EC(Me)[Cha]-NH2)	6.70
C=CCOC(=O)N[C@@H](Cc1ccc(C(=N)N)cc1)C(=O)N[C@@H](CCC(=O)O)C(=O)N[C@H](CCCNC(=N)N)C(=O)N[C@@H](CC1CCCCC1)C(N)=O [Alloc--pAph--Glu--D--Arg--Cha--NH2] (Alloc-[Phe(4-amidino)]E[dR][Cha]-NH2)	4.92
C=CCOC(=O)N[C@@H](Cc1ccc(C(=N)N)cc1)C(=O)N[C@@H](CCC(=O)O)C(=O)N[C@H](CCCCNC(=N)N)C(=O)N[C@@H](CC1CCCCC1)C(N)=O [Alloc--pAph--Glu--D--Lys[--C(=NH)--NH2]--Cha--NH2] (Alloc-[Phe(4-amidino)]E[d(hArg)][Cha]-NH2)	4.66
C=CCOC(=O)N[C@@H](Cc1ccc(C(=N)N)cc1)C(=O)N[C@@H](CCC(=O)O)C(=O)N[C@H](Cc1ccc(NC(=N)N)cc1)C(=O)N[C@@H](CC1CCCCC1)C(N)=O [Alloc--pAph--Glu--D--Phe(4-guanidino)--Cha--NH2] (Alloc-[Phe(4-amidino)]E[dPhe(4-guanidino)][Cha]-NH2)	4.95
C=CCOC(=O)NCC[C@H](NC(=O)[C@H](CCC(=O)O)NC(=O)[C@H](Cc1ccc(C(=N)N)cc1)NC(=O)OCC=C)C(=O)N[C@@H](CC1CCCCC1)C(N)=O [Alloc--pAph--Glu--Dab(Alloc)--Cha--NH2] (Alloc-[Phe(4-amidino)]E[Dab](Alloc)[Cha]-NH2)	6.82
C=CCOC(=O)N[C@@H](Cc1ccc(C(=N)N)cc1)C(=O)N[C@@H](CCC(=O)O)C(=O)N[C@@H](CCN)C(=O)N[C@@H](CC1CCCCC1)C(N)=O [Alloc--pAph--Glu--Dab--Cha--NH2, Alloc-pAph-Glu-Dab-Cha-NH2] (Alloc-[Phe(4-amidino)]E[Dab][Cha]-NH2)	7.26
C=CCOC(=O)N[C@@H](Cc1ccc(C(=N)N)cc1)C(=O)N[C@@H](CCC(=O)O)C(=O)N[C@@H](CCN)C(=O)NCCc1ccccc1 [Alloc--pAph--Glu--Dab--NH--(CH2)2 --Ph, Alloc-pAph-Glu-Dab-NH--CH2 --CH2 --Ph]	6.42
C=CCOC(=O)N[C@@H](Cc1ccc(C(=N)N)cc1)C(=O)N[C@@H](CCC(=O)O)C(=O)N[C@@H](CCNC(C)=N)C(=O)N[C@@H](CC1CCCCC1)C(N)=O [Alloc--pAph--Glu--Dab[--C(=NH)--CH3]--Cha--NH2]	6.72
C=CCOC(=O)N[C@@H](Cc1ccc(C(=N)N)cc1)C(=O)N[C@@H](CCC(=O)O)C(=O)N[C@@H](CCNC(=N)N)C(=O)N[C@@H](CC1CCCCC1)C(N)=O [Alloc--pAph--Glu--Dab[--C(=NH)--NH2]--Cha--NH2] (Alloc-[Phe(4-amidino)]E[Agb][Cha]-NH2)	7.92
C=CCOC(=O)N[C@@H](Cc1ccc(C(=N)N)cc1)C(=O)N[C@@H](CCC(=O)O)C(=O)N[C@@H](CNC(=N)N)C(N)=O [Alloc--pAph--Glu--Dap[--C(=NH)--NH2]--NH2]	6.59
C=CCOC(=O)N[C@@H](Cc1ccc(C(=N)N)cc1)C(=O)N[C@@H](CCC(=O)O)C(=O)N[C@@H](CNC(=N)N)C(=O)N[C@@H](Cc1ccc(C2(c3ccccc3)SCCS2)cc1)C(N)=O [Alloc--pAph--Glu--Dap[--C(=NH)--NH2]--Phe[4-C(--S--(CH2)2 --S--)--Ph]--NH2]	7.82
C=CCOC(=O)N[C@@H](Cc1ccc(C(=N)N)cc1)C(=O)N[C@@H](CCC(=O)O)C(=O)N[C@@H](CCC(N)=O)C(N)=O [Alloc--pAph--Glu--Gln--NH2]	5.82
C=CCOC(=O)N[C@@H](Cc1ccc(C(=N)N)cc1)C(=O)N[C@@H](CCC(=O)O)C(=O)NCC(=O)N[C@@H](CC1CCCCC1)C(N)=O [Alloc--pAph--Glu--Gly--Cha--NH2, Alloc-pAph-Glu-Gly-Cha-NH2] (Alloc-[Phe(4-amidino)]EG[Cha]-NH2)	6.92
C=CCOC(=O)N[C@@H](Cc1ccc(C(=N)N)cc1)C(=O)N[C@@H](CCC(=O)O)C(=O)N[C@@H](Cc1c[nH]cn1)C(=O)N[C@@H](CC1CCCCC1)C(N)=O [Alloc--pAph--Glu--His--Cha--NH2] (Alloc-[Phe(4-amidino)]EH[Cha]-NH2)	6.85
C=CCOC(=O)N[C@@H](Cc1ccc(C(=N)N)cc1)C(=O)N[C@@H](CCC(=O)O)C(=O)N[C@@H](CCSC)C(=O)N[C@@H](CC1CCCCC1)C(N)=O [Alloc--pAph--Glu--Met--Cha--NH2] (Alloc-[Phe(4-amidino)]EM[Cha]-NH2)	6.96
C=CCOC(=O)N[C@@H](Cc1ccc(C(=N)N)cc1)C(=O)N[C@@H](CCC(=O)O)C(=O)N[C@@H](CCCN)C(N)=O [Alloc--pAph--Glu--Orn--NH2]	5.21
C=CCOC(=O)N[C@@H](Cc1ccc(C(=N)N)cc1)C(=O)N[C@@H](CCC(=O)O)C(=O)N[C@@H](CCCNC(C)=N)C(=O)N[C@@H](CC1CCCCC1)C(N)=O [Alloc--pAph--Glu--Orn[--C(=NH)--CH3]--Cha--NH2] (Alloc-[Phe(4-amidino)]E[Orn(acetimidoyl)][Cha]-NH2)	6.89
C=CCOC(=O)N[C@@H](Cc1ccc(C(=N)N)cc1)C(=O)N[C@@H](CCC(=O)O)C(=O)N[C@@H](Cc1ccc([N+](=O)[O-])cc1)C(=O)N[C@@H](CC1CCCCC1)C(N)=O [Alloc--pAph--Glu--Phe(4-NO2)--Cha--NH2] (Alloc-[Phe(4-amidino)]E[Phe(4-NO2)][Cha]-NH2)	7.34
C=CCOC(=O)N[C@@H](Cc1ccc(C(=N)N)cc1)C(=O)N[C@@H](CCC(=O)O)C(=O)N[C@H](C(=O)N[C@@H](CC1CCCCC1)C(N)=O)c1ccccc1 [Alloc--pAph--Glu--Phg--Cha--NH2] (Alloc-[Phe(4-amidino)]E[Phg][Cha]-NH2)	7.77
C=CCOC(=O)N[C@@H](Cc1ccc(C(=N)N)cc1)C(=O)N[C@@H](CCC(=O)O)C(=O)N[C@H](C(=O)N[C@@H](CC1CCCCC1)C(N)=O)[C@@H](C)OCc1ccccc1 [Alloc--pAph--Glu--Thr(Bzl)--Cha--NH2] (Alloc-[Phe(4-amidino)]ET(Bn)[Cha]-NH2)	7.72
C=CCOC(=O)N[C@@H](Cc1ccc(C(=N)N)cc1)C(=O)N[C@@H](CCC(=O)O)C(=O)N[C@@H](Cc1c[nH]c2ccccc12)C(=O)N[C@@H](CC1CCCCC1)C(N)=O [Alloc--pAph--Glu--Trp--Cha--NH2] (Alloc-[Phe(4-amidino)]EW[Cha]-NH2)	7.77
C=CCOC(=O)N[C@@H](Cc1ccc(C(=N)N)cc1)C(=O)N[C@@H](CCC(=O)O)C(=O)N[C@@H](CC(=N)N)C(=O)N[C@@H](CC1CCCCC1)C(N)=O [Alloc-pAph-Glu-Ala[3-C(=NH)--NH2 ]-Cha-NH2]	7.52
C=CCOC(=O)N[C@@H](Cc1ccc(C(=N)N)cc1)C(=O)N[C@@H](CCC(=O)O)C(=O)N[C@@H](CNC(C)=N)C(=O)N[C@@H](CC1CCCCC1)C(N)=O [Alloc-pAph-Glu-Dap[--C(=NH)--CH3 ]-Cha-NH2]	6.96
C=CCOC(=O)N[C@@H](Cc1ccc(C(=N)N)cc1)C(=O)N[C@@H](CCC(=O)O)C(=O)N[C@@H](Cc1ccc(NC(=N)N)cc1)C(=O)N[C@@H](CC1CCCCC1)C(N)=O [Alloc-pAph-Glu-Phe(4-guanidino)-Cha-NH2] (Alloc-[Phe(4-amidino)]E[Phe(4-guanidino)][Cha]-NH2)	6.92
C=CCOC(=O)N[C@@H](Cc1ccc(C(=N)N)cc1)C(=O)N[C@@H](CCC(=O)O)C(=O)N[C@H](C(=O)NCCC(c1ccccc1)c1ccccc1)[C@@H](C)OCc1ccccc1 [Alloc-pAph-Glu-Thr(Bzl)-NH--CH2 --CH2 --CH(Ph)2]	6.77
C=CCNC(=O)N[C@@H](Cc1ccc(C(=N)N)cc1)C(=O)N[C@@H](CCC(=O)O)C(=O)N[C@@H](CCCNC(=N)N)C(=O)N[C@@H](CC1CCCCC1)C(N)=O [allyl-NH--C(O)-pAph-Glu-Arg-Cha-NH2] ({NHAllyl-CO}-[Phe(4-amidino)]ER[Cha]-NH2)	7.38
